Test results published in US9040457B2, “Phenylamidines having a high fungicidal activity and use thereof” (ISAGRO S.P.A., priority 2010, dated 2015).

Assays:
Assay type in all cases: in vivo
Erysiphe graminis = experiment: Fungicidal activity in preventive application (5 days) against Erysiphe graminis on wheat; conditions: scale 100 = healthy plant, 0 = completely infected plant; for Activity P5, NT: parts developed during the test (NT); for Activity P5, T: parts treated directly (T)
Experimental: Determination of the Fungicidal Activity in Preventive Application (5 Days) Against Erysiphe graminis on Wheat
(§1) Leaves of wheat plants of the Salgemma variety, grown in pots in a conditioned environment kept at 20° C. and 70% of relative humidity (R.H.), were treated by spraying on both sides of the leaves with the compounds under examination, dispersed in hydroacetonic solutions at 20% by volume of acetone.
After remaining 5 days in a conditioned environment, the plants were infected under dry conditions by shaking over them, in order to distribute the inoculum, plants previously infected by Erysiphe graminis.
The plants were then maintained in the same cell, in a humidity-saturated environment and at a temperature ranging from 18 to 24° C. for 12 days.
(§2) At the end of this period, the external symptoms of the pathogen appeared and it was therefore possible to proceed with the evaluation of the intensity of the infection, on both the parts treated directly with the products (T), and also on the parts which had developed during the test (NT), by means of a visible percentage evaluation scale of the area of affected leafs; the scale comprises, as extremes, the value 100 (healthy plant) and the value 0 (completely infected plant).

wheat plants [1] = experiment: Phytotoxicity (percentage of leaf necrosis) on wheat plants, Erysiphe graminis test; conditions: 0 = completely healthy plant, 100 = completely necrotized plant
Experimental: as §1
(§3) At the same time, the phytotoxicity was evaluated (percentage of leaf necrosis) induced on the wheat plants by the application of the products: in this case, the evaluation scale varies from 0 (completely healthy plant) to 100 (completely necrotized plant).

Puccinia recondita = experiment: Fungicidal activity in preventive application (5 days) against Puccinia recondita on wheat; conditions: scale 100 = healthy plant, 0 = completely infected plant; for Activity P5, NT: parts developed during the test (NT); for Activity P5, T: parts treated directly (T)
Experimental: Determination of the Fungicidal Activity in Preventive Application (5 Days) Against Puccinia recondita on Wheat
as §1
After remaining 5 days in a conditioned environment, the plants were sprayed on both sides of the leafs with an aqueous suspension of conidia of Puccinia recondita (2 mg of inoculum per 1 ml of solution for infection).
After being sprayed, the plants were kept in a humidity-saturated environment at a temperature ranging from 18 to 24° C. for the incubation period of the fungus (1 day).
After this period, the plants were put in a greenhouse with R.H. of 70% and at a temperature of 18-24° C. for 14 days.
as §2

wheat plants [2] = experiment: Phytotoxicity (percentage of leaf necrosis) on wheat plants, Puccinia recondita test; conditions: 0 = completely healthy plant, 100 = completely necrotized plant
Experimental: as §1, §3

[3] = test system: cereals, cucumbers, tomatoes and other important crops; experiment: Phytotoxicity of WO 00/46184 compounds on crops (background statement); conditions: at the doses which allow a good fungicidal activity
phytopathogenic fungi = experiment: Fungicidal activity of WO 00/46184 compound (background statement); conditions: only exerted satisfactorily in excessively high dosages

SMILES | Activity P5, NT (Erysiphe graminis; 30 ppm) [%] | Activity P5, T (Erysiphe graminis; 30 ppm) [%] | Activity P5, NT (Erysiphe graminis; 125 ppm) [%] | Activity P5, T (Erysiphe graminis; 125 ppm) [%] | Phytotoxicity % N.F. (wheat plants [1]; 30 ppm) [%] | Phytotoxicity % N.F. (wheat plants [1]; 125 ppm) [%] | Activity P5, NT (Puccinia recondita; 30 ppm) [%] | Activity P5, T (Puccinia recondita; 30 ppm) [%] | Activity P5, NT (Puccinia recondita; 125 ppm) [%] | Activity P5, T (Puccinia recondita; 125 ppm) [%] | Phytotoxicity % N.F. (wheat plants [2]; 30 ppm) [%] | Phytotoxicity % N.F. (wheat plants [2]; 125 ppm) [%] | leaf necrosis on crops [3] | fungicidal activity (phytopathogenic fungi)
CCN(C)C=Nc1cc(C)c(Sc2cccc(OCC(F)(F)C(F)(F)F)c2)cc1C [Compound 23] | 100 | 100 | 100 | 100 | 0 | 0 | 100 | 100 | 100 | 100 | 0 | 0 | – | –
CCN(C)C=Nc1cc(C)c(Sc2cccc(OCC(F)(F)C(F)F)c2)cc1C [Compound 19] | 100 | 100 | 100 | 100 | 0 | 0 | 100 | 100 | 100 | 100 | 0 | 0 | – | –
CCN(C)C=Nc1cc(C)c(Sc2cccc(OC(F)(F)C(F)F)c2)cc1C [Compound 2, N-ethyl-N-methyl-N′-{4-[3-(1,1,2,2-tetrafluoroethoxy)phenylthio]-2,5-xylyl}formamidine] | 100 | 100 | 100 | 100 | 0 | 0 | 100 | 100 | 100 | 100 | 0 | 0 | – | –
CCN(C)C=Nc1cc(C)c(Sc2cccc(OCC(F)(F)F)c2)cc1C [Compound 15] | 100 | 100 | 100 | 100 | 0 | 0 | 100 | 100 | 100 | 100 | 0 | 0 | – | –
Cc1cc(Oc2cccc(C(F)(F)F)c2)c(C)cc1N=CN(C)C [CR-1, N,N-dimethyl-N′-[4-(3-trifluoromethylphenoxy)-2,5-xylyl]-formamidine] | 76 | 90 | 90 | 100 | 15 | 25 | 70 | 80 | 90 | 100 | 14 | 26 | marked leaf necrosis | –
CCN(C)C=Nc1cc(C)c(Oc2cccc(C(F)(F)F)c2)cc1C [CR-3, N-ethyl-N-methyl-N′-[4-(3-trifluoromethylphenoxy)-2,5-xylyl]formamidine] | 85 | 95 | 96 | 100 | 20 | 35 | 85 | 95 | 100 | 100 | 21 | 33 | marked leaf necrosis | –
Cc1cc(Sc2cccc(C(F)(F)F)c2)c(C)cc1N=CN(C)C [CR-2, N,N-dimethyl-N′-[4-(3-trifluoromethylphenylthio)-2,5-xylyl]-formamidine] | 65 | 78 | 80 | 95 | 0 | 0 | 60 | 68 | 90 | 95 | 0 | 0 | – | insufficient
CCN(C)C=Nc1cc(C)c(Sc2cccc(OC(F)F)c2)cc1C [Compound 1, N-ethyl-N-methyl-N′-[4-(3-difluoromethoxyphenylthio)-2,5-xylyl]formamidine] | 100 | 100 | 100 | 100 | 0 | 0 | 100 | 100 | 100 | 100 | 0 | 0 | – | –
Cc1cc(Oc2cccc(OC(F)(F)F)c2)c(C)cc1N=CN(C)C [CR-4, N,N-dimethyl-N′-[4-(3-trifluoromethoxyphenoxy)-2,5-xylyl]formamidine] | 70 | 75 | 90 | 95 | 15 | 30 | 65 | 70 | 85 | 90 | 20 | 30 | marked leaf necrosis | –
Cc1cc(Oc2cccc(OCC(F)(F)F)c2)c(C)cc1N=CN(C)C [CR-5, N,N-dimethyl-N′-{4-[3-(2,2,2-trifluoroethoxy)phenoxy]-2,5-xylyl}formamidine] | 65 | 70 | 80 | 90 | 20 | 30 | 60 | 65 | 80 | 85 | 15 | 25 | marked leaf necrosis | –
